From PubChem BioAssay (NCI)
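Cells were grown in 96-well plates and exposed to each compound for 48 hours at five concentrations; endpoints were interpolated linearly between bracketing concentrations, or set to the highest concentration if not reached. GI50 = concentration required for 50% inhibition of growth. TGI: total growth inhibition.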 Where a SMILES comes first, the peptide text is derived from it. Bridges are numbered along the chain shown (N, C = ends). Roman numbers before positions name the chains, in order. [ ]: non-standard residue; d: D form. The star is where a group is joined. Heptadecanoyl = CCCCCCCCCCCCCCCCC(=O)*; Phg = N[CH](C(=O)O)c1ccccc1

Experiments:
Assay in all cases: inhibition of tumour cell growth, NCI panel, 48 h
SF-539 CNS = system: SF-539 CNS
BT-549 breast = system: BT-549 breast
M14 melanoma = system: M14 melanoma
OVCAR-3 ovarian = system: OVCAR-3 ovarian
RPMI-8226 leukemia = system: RPMI-8226 leukemia
786-0 renal = system: 786-0 renal
UO-31 renal = system: UO-31 renal
PC-3 prostate = system: PC-3 prostate
CCRF-CEM leukemia = system: CCRF-CEM leukemia
SK-MEL-5 melanoma = system: SK-MEL-5 melanoma
OVCAR-8 ovarian = system: OVCAR-8 ovarian

Structure (SMILES)	TGI (SF-539 CNS) [µM]	TGI (BT-549 breast) [µM]	TGI (M14 melanoma) [µM]	TGI (OVCAR-3 ovarian) [µM]	TGI (RPMI-8226 leukemia) [µM]	TGI (786-0 renal) [µM]	TGI (UO-31 renal) [µM]	TGI (PC-3 prostate) [µM]	TGI (CCRF-CEM leukemia) [µM]	TGI (SK-MEL-5 melanoma) [µM]	TGI (OVCAR-8 ovarian) [µM]	GI50 (SF-539 CNS) [µM]	GI50 (BT-549 breast) [µM]	GI50 (M14 melanoma) [µM]	GI50 (OVCAR-3 ovarian) [µM]	GI50 (RPMI-8226 leukemia) [µM]	GI50 (UO-31 renal) [µM]	GI50 (CCRF-CEM leukemia) [µM]	GI50 (SK-MEL-5 melanoma) [µM]	GI50 (OVCAR-8 ovarian) [µM]
CC(=O)OCC1OC(OC2CC3C(C)(C)C(=O)CC[C@]3(C)C3CC[C@]45C[C@]4(CCC5[C@@H](C)CC(O)C(O)C(C)(C)O)[C@]23C)C(O)C(O)C1O (stereo not given in full)	28.8	25.9	22.2	25.4	17.2	26.5	32.2	21.5	16.7	20.3	26.5	–	–	–	–	–	–	–	–	–
CN(C)C1COC2Cc3ccccc3C1O2 (stereo not given)	> 100	–	> 100	> 100	> 100	> 100	> 100	> 100	> 100	> 100	> 100	–	–	–	–	–	–	–	–	–
O=C(NO)c1ccc(OCc2ccccc2)cc1	> 100	> 100	> 100	> 100	> 100	55.3	72.8	> 100	> 100	> 100	28.7	–	–	–	–	–	–	–	–	–
CC[C@@H]1C[C@@H](O)[C@@H]2[C@H](O)[C@H](O)CN2C1	> 100	> 100	> 100	> 100	> 100	> 100	> 100	> 100	> 100	> 100	> 100	–	–	–	–	–	–	–	–	–
O=C1c2ccc3ccccc3c2CCC1N1CCCCC1 (stereo not given)	28.8	74.7	–	28.8	–	32.1	29.1	42.3	–	30.7	37.3	–	–	–	–	–	–	–	–	–
CN(C)CC1CN(C(=O)Nc2ccccc2)C(=N)O1 (stereo not given)	> 100	> 100	> 100	> 100	> 100	> 100	> 100	> 100	> 100	> 100	> 100	–	–	–	–	–	–	–	–	–
Cc1c(C)c(C)c(CSC(=N)N)c(C)c1C	29.1	30.7	22.7	32.1	38.9	32.9	20.2	24.6	35.4	26.6	58.2	–	–	–	–	–	–	–	–	–
COC(=O)c1cc(/C=C2\Cc3cc4c(cc3C2=O)CCC4)cc2c1CCC2	> 100	> 100	> 100	> 100	> 100	> 100	> 100	> 100	> 100	–	> 100	–	–	–	–	–	–	–	–	–
COc1cc(OC)nc(NC(=O)NS(=O)(=O)c2cccc3ncn(C)c(=O)c23)n1	> 100	–	> 100	> 100	> 100	> 100	> 100	–	> 100	> 100	> 100	–	–	–	–	–	–	–	–	–
CC1(C)OC([C@H](O)CO)C([C@H]2NCCS2)O1 (stereo not given in full)	–	> 100	> 100	> 100	> 100	> 100	> 100	> 100	> 100	> 100	> 100	–	–	–	–	–	–	–	–	–
Cc1cc(-c2ccc(Cl)cc2)c(C#N)c(=S)n1C1OC(CO)C(O)C(O)C1O (stereo not given)	> 100	–	> 100	> 100	–	> 100	–	> 100	> 100	> 100	> 100	–	–	–	–	–	–	–	–	–
CC1CC(=O)NC2CC1C2(C)C (stereo not given)	–	> 100	> 100	> 100	> 100	> 100	> 100	–	> 100	> 100	> 100	–	–	–	–	–	–	–	–	–
CCCCCCCCCCCCCCCCC(=O)N1CCCC1C(=O)NCC(=O)NC(C(=O)N1CCCC1C(=O)NC(CO)C(=O)NC(Cc1ccc(O)cc1)C(=O)NC(CCCCNC(=O)C1CCCN1C(=O)C(CCCCN)NC(=O)C(CCCCN)NC(=O)C(CCCCN)NC(=O)C(CCCNC(=N)N)NC(=O)C(CCCCN)NC(=O)C(N)C(C)C)C(=O)NC(CC(C)C)C(=O)NC(CCCNC(=N)N)C(=O)N1CCCC1C(=O)NCC(N)=O)c1ccccc1 (stereo not given) (I: Heptadecanoyl-PG[Phg]PSYKLRPG-NH2 / II: H-VKRKKKP; amide I:7-II:C; configuration not given here)	> 100	89.3	99.7	71.2	35.3	–	> 100	–	31.5	> 100	84.6	34.4	36.5	25.3	27	13.5	32.4	12	31.3	28.2
CC1(C)CC[C@]2(C(=O)O)CC[C@]3(C)C(=CC[C@@H]4[C@@]5(C)CC[C@@H]6OC(C)(C)OC[C@@]6(C)[C@@H]5CC[C@]43C)[C@H]2C1	33.5	–	33.7	18.5	66	24	25.6	19.1	37.1	–	> 100	–	–	–	–	–	–	–	–	–
O=C(O)CCCC#CCCCC(=O)O	> 100	–	> 100	> 100	–	> 100	> 100	> 100	–	> 100	> 100	–	–	–	–	–	–	–	–	–
CN(C)C(=S)SCc1ccccc1	> 100	> 100	> 100	> 100	–	–	> 100	–	> 100	> 100	> 100	–	–	–	–	–	–	–	–	–
CC1OC2OC3C(OCC(O)C3O)OC(=O)[C@]34CCC(C)(C)CC3C3=CCC5[C@@]6(C)C[C@H](O)[C@H](OC7OC(CO)C(O)C(O)C7OC7OC(COC(=O)CC(C)(O)CC(=O)OC1C(O)C2O)C(O)C(O)C7O)[C@@](C)(CO)C6CC[C@@]5(C)[C@]3(C)CC4 (stereo not given in full)	11.9	2.82	2.76	3.15	–	2.4	2.52	2.56	–	2.34	3.1	–	–	–	–	–	–	–	–	–
CO[C@H]1C[C@H](O[C@H]2CC[C@]3(C=O)[C@H]4CC[C@]5(C)[C@@H](C6=CC(=O)OC6)CC[C@]5(O)[C@@H]4CC[C@]3(O)C2)O[C@H](C)[C@H]1O[C@@H]1O[C@H](CO[C@@H]2O[C@H](CO)[C@@H](O)[C@H](O)[C@H]2O)[C@@H](O)[C@H](O)[C@H]1O	0.12	0.164	0.312	0.0809	–	0.0781	0.144	0.33	> 100	0.124	0.167	–	–	–	–	–	–	–	–	–
O=C1CCC2(c3ccc(F)cc3)Nc3ncncc3N12 (stereo not given)	> 10	> 10	> 10	> 10	–	> 10	> 10	> 10	> 10	–	> 10	–	–	–	–	–	–	–	–	–
CCOC(=O)c1cc(C2(OC)CCN(Cc3ccccc3)C2=O)c(-c2cc(C)no2)[nH]1 (stereo not given)	–	> 100	> 100	> 100	> 100	> 100	> 100	> 100	–	> 100	> 100	–	–	–	–	–	–	–	–	–

Structure (SMILES)	TGI (SF-539 CNS) [µM]	TGI (BT-549 breast) [µM]	TGI (M14 melanoma) [µM]	TGI (OVCAR-3 ovarian) [µM]	TGI (RPMI-8226 leukemia) [µM]	TGI (786-0 renal) [µM]	TGI (UO-31 renal) [µM]	TGI (PC-3 prostate) [µM]	TGI (CCRF-CEM leukemia) [µM]	TGI (SK-MEL-5 melanoma) [µM]	TGI (OVCAR-8 ovarian) [µM]	GI50 (SF-539 CNS) [µM]	GI50 (BT-549 breast) [µM]	GI50 (M14 melanoma) [µM]	GI50 (OVCAR-3 ovarian) [µM]	GI50 (RPMI-8226 leukemia) [µM]	GI50 (UO-31 renal) [µM]	GI50 (CCRF-CEM leukemia) [µM]	GI50 (SK-MEL-5 melanoma) [µM]	GI50 (OVCAR-8 ovarian) [µM]
Cc1cccc(C(O)c2ccccn2)c1O (stereo not given)	> 100	> 100	–	> 100	> 100	–	> 100	> 100	> 100	> 100	> 100	–	–	–	–	–	–	–	–	–
O=C1NCN(c2ccccc2)C12CCN(CCCSc1ccc(F)cc1)CC2	58.5	–	21.7	> 100	> 100	> 100	> 100	> 100	> 71.4	17.9	> 100	–	–	–	–	–	–	–	–	–
[O-][n+]1onc2c1-c1nonc1CC2	53.4	–	89.8	43.8	> 100	> 100	> 100	77.8	> 100	78.6	> 100	–	–	–	–	–	–	–	–	–
CN(C)N1C(=O)CC2(CCN(CCCC(=O)c3ccc(F)cc3)CC2)C1=O	> 100	> 100	> 100	> 100	> 100	> 100	> 100	> 100	–	> 100	> 100	–	–	–	–	–	–	–	–	–
CC(C)[C@H](NC(=O)[C@@H](O)[C@H](N)Cc1ccccc1)C(=O)N[C@@H](Cc1ccccc1)C(=O)O	–	–	> 100	> 100	> 100	> 100	> 100	> 100	> 100	> 100	> 100	–	–	–	–	–	–	–	–	–
Nc1nc(Cl)nc2c1ncn2C1CCC(CO)O1 (stereo not given)	–	> 100	> 100	> 100	> 100	–	> 100	> 100	> 100	> 100	> 100	–	–	–	–	–	–	–	–	–
C=C1C(=O)O[C@H]2[C@H]3O[C@@H](C[C@@H]12)[C@](C)(O)CCCC(C)=CCC[C@H]3C	26.9	3.07	–	27.5	17.4	> 100	23.5	25.7	3.24	31.1	21	–	–	–	–	–	–	–	–	–
CC(C)(Cc1ccccc1)Cc1cc(O)ccc1O	27.1	74.1	37.4	25.3	–	29	26.3	> 100	36.7	–	40.7	–	–	–	–	–	–	–	–	–
CCC1CCN=C(Cn2cc(C)c(=O)[nH]c2=O)N1 (stereo not given)	–	> 100	> 100	–	–	> 100	> 100	> 100	> 100	> 100	> 100	–	–	–	–	–	–	–	–	–
CCC(CCCCC1CC[C@H]2CC(=O)C[C@@H]12)OC (stereo not given in full)	> 100	> 100	> 100	> 100	> 100	> 100	–	> 100	> 100	> 100	> 100	–	–	–	–	–	–	–	–	–
CC1(CC(=O)OC(C#C[Si](C)(C)C)Cc2ccccc2)OCCO1 (stereo not given)	> 100	> 100	> 100	–	–	> 100	> 100	> 100	> 100	> 100	> 100	–	–	–	–	–	–	–	–	–
CCOC(=O)c1cc(Cl)ccc1OC(N)=O	> 100	–	–	> 100	> 100	–	> 100	–	> 100	> 100	> 100	–	–	–	–	–	–	–	–	–
O=C1/C(=C/c2cccc([N+](=O)[O-])c2)N=C(c2ccccc2)N1c1ccc2c(c1)Sc1cc(N3C(=O)/C(=C/c4cccc([N+](=O)[O-])c4)N=C3c3ccccc3)ccc1N2	–	52.4	87.9	28.4	> 100	46.3	> 100	52.8	55.3	31	78.8	–	–	–	–	–	–	–	–	–
COc1cc(C2SC(N)=Nc3c2c(C)nn3C(=O)Cc2ccccc2)ccc1O (stereo not given)	> 100	> 100	> 100	–	> 100	> 100	> 100	> 100	> 100	> 100	> 100	–	–	–	–	–	–	–	–	–
CC(C)(C)C1=NN=C2c3ccccc3C(=O)C21 (stereo not given)	> 100	–	> 100	> 100	> 100	> 100	> 100	> 100	> 100	54.3	> 100	–	–	–	–	–	–	–	–	–
COc1ccc(-n2nnnc2C2(Nc3ccccc3)CCN(Cc3ccccc3)CC2)cc1	34.6	–	32	–	48.5	28	38.9	–	> 100	24.6	54.6	–	–	–	–	–	–	–	–	–
CCCC[Si](CCCC)(CCCC)O[C@@H](/C=C/C(=O)OCC)[C@H](Cc1ccccc1)O[Si](CCCC)(CCCC)CCCC	> 100	> 100	–	–	> 100	> 100	> 100	> 100	> 100	–	> 100	–	–	–	–	–	–	–	–	–
O=C1C(c2c(O)[nH]c3ccc(S(=O)(=O)N(CCO)CCO)cc23)=Nc2ccccc21	–	> 100	> 100	> 100	> 100	> 100	> 100	> 100	> 100	> 100	> 100	–	–	–	–	–	–	–	–	–
COc1ccc(C2Oc3c(cccc3OC)C=C2[N+](=O)[O-])cc1 (stereo not given)	–	4.32	2.15	4.75	> 100	4.98	3.14	5.16	> 100	2.93	11.2	–	–	–	–	–	–	–	–	–
